# Measurements: patent US20040043417A1, “Generation and screening of a dynamic combinatorial library” (priority 2000, published 2004)
# Molecular target: Concanavalin A (Canavalia ensiformis, UniProt P02866)
# Assay: Screening of acyl hydrazone libraries against Concanavalin A, competitive binding assay
# Experimental: The library was then made up of one part (40 μL) of each of these solutions, buffered with sodium acetate buffer (50 μL, 1 M, pH 4.0), and diluted with water (510 μL) to a final concentration of 1 mM of each building block, and 50 mM buffer. The resulting libraries were allowed to equilibrate for one week at room temperature to assure complete reaction, and used directly, or following concentration/dilution, in the subsequent screening tests.
smiles,measurement,value
"NNC(=O)CCCCCCCCC(=O)NN [SED, sebacoyldihydrazide]",contribution of building block to the binding to Concanavalin A,important contributions to the binding
